As a reminder, the inhibition in vivo is the drop in the measured response relative to a control, in per cent.

The assay deals with rat PCA response. Nature of the assay: Rat Passive Cutaneous Anaphylaxis (PCA) test. Type of assay: in vivo, rat (male Wistar serum donors; Wistar test rats). The method, then:
Some of the substituted 4-hydroxy-3-nitro-α-pyridones prepared in the previous examples were submitted for biological testing. The test system was the Rat Passive Cutaneous Anaphylaxis (PCA) test described below in (ii).
i. Serum containing heat labile homocytotropic antibody was raised in rats by a method similar to that used by Mota. (I. Mota Immunology 1964, 7, 681).
Male Wistar rats of 250- 300g, were injected intraperitoneally with 0.5ml of Bordatella pertussis vaccine (containing 4 × 10^10 dead organism per ml) and subcutaneously with 0.5ml of an emulsion of 100mg of ovalbumin in 2ml of saline and 3ml of incomplete Freunds' adjuvant. Rats were bled by cardiac puncture on day 18, the blood was pooled and separated and serum stored at -20° C and thawed only once before use.
ii. The P.C.A. test was similar to that described by Ovary and Bier (A. Ovary and O. E. Bier, Proc. Soc. Exp. Biol.Med.1952, 81, 584) and Goose and Blair (J. Goose and A. M. J. N. Blair, Immunology 1969, 16, 769).
0.1ml. of each six twofold serial dilutions of the serum in 0.9% saline were injected intradermally into separate sites on the shaved dorsal surface of 250-350 g Wistar rats. 72 hours later the animals were challenged by i.v. injection of 0.3ml of 1% ovalbumin mixed with 0.1ml of a 5% solution of pontamine sky blue dye both in isotonic saline buffered with pH 7.2 Sorenson buffer (P.B.S.). The rats were killed after 20 minutes and the diameter of the blue wheals at the antibody injection sites were measured. The starting dilution of the serum was adjusted so that there was no response, after challenge, at the site of injection of the highest dilution and a maximum response at the lowest dilution. Typically, six twofold serial dilutions of the serum from 1/4 to 1/128 were used.
Compounds were tested for their ability to reduce the diameter of the wheals at the injection sites of dilutions of antibody which on all the controls have less than maximum response. Amounts of the compounds were administered to rats each amount to a test group of six animals at a specified time prior to intravenous challenge with ovalbumin. The diameters of the blue wheals which developed on the test group of animals were compared with those on a control group of six animals treated in the same way as the test group, but which had not received the compound under test.
% Inhibition of P.C.A. = 100 (1 - (a/b))
a = The mean of the sum of the diameters of the wheels produced in the test group of animals at those antibody sites where all the control group of animals gave less than maximum response.
b = The mean of the sum of diameters of the wheals produced in the control group of animals at those antibody sites where all the animals in the group gave less than the maximum response.
The compounds were administered either as a solution of the free nitro compound or as a solution or suspension in 1% methyl cellulose of the sodium salt.

The mark [1] stands for this setting: time 30 mins prior to challenge.
The mark [2] stands for this setting: time 10 mins prior to challenge.
[3] abbreviates: time 60 mins prior to challenge.

For `CCn1c2c(c(O)c([N+](=O)[O-])c1=O)CCCC2` [Example 8, 1-Ethyl-4-hydroxy-3-nitro-5,6,7,8-tetrahydrocarbostyril], the inhibition in vivo at 25 mg/kg by setting is: (time 0 mins prior to challenge) -5%; under setting [1], 14%. Also, the inhibition in vivo at 100 mg/kg reads like this: (time 0 mins prior to challenge) 12%; under setting [1], 75%.
`O=c1[nH]c2c(c(O)c1[N+](=O)[O-])CCCCCC2` [Example 7, 5,6-cyclooctenyl-4-hydroxy-3-nitro-α-pyridone]: the inhibition in vivo at 25 mg/kg by setting is: under setting [2], 17%; under setting [1], 15%. Besides, the inhibition in vivo at 100 mg/kg is 59% under setting [2] and 37% under setting [1].
Regarding `CC1CCc2c([nH]c(=O)c([N+](=O)[O-])c2O)C1` (centres unmarked) [Example 2, 4-Hydroxy-7-methyl-3-nitro-5,6,7,8-tetrahydrocarbostyril], the inhibition in vivo at 25 mg/kg (time 0 mins prior to challenge) stood at 36% and the inhibition in vivo at 25 mg/kg under setting [1] is 49%. Moreover, the inhibition in vivo at 100 mg/kg was found to be 76% (time 0 mins prior to challenge) and 40% under setting [1].
As to `CC1CCc2[nH]c(=O)c([N+](=O)[O-])c(O)c2C1` (centres unmarked) [Example 6, 4-Hydroxy-6-methyl-3-nitro-5,6,7,8-tetrahydrocarbostyril], the inhibition in vivo at 25 mg/kg is, setting by setting: (time 0 mins prior to challenge) 1%; under setting [3], 15%. The inhibition in vivo at 100 mg/kg reads like this: (time 0 mins prior to challenge) 24%; under setting [3], 37%.
Regarding `O=c1[nH]c2c(c(O)c1[N+](=O)[O-])CCCC2` [Example 1, 4-Hydroxy-3-nitro-5,6,7,8-tetrahydrocarbostyril], the inhibition in vivo at 25 mg/kg stood at 16% (time 0 mins prior to challenge) and 15% under setting [1]. In addition, the inhibition in vivo at 100 mg/kg is, setting by setting: (time 0 mins prior to challenge) 70%; under setting [1], 20%.
Regarding `CC1Cc2[nH]c(=O)c([N+](=O)[O-])c(O)c2C(C)C1` (centres unmarked) [Example 5, 5,7-dimethyl-4-hydroxy-3-nitro-5,6,7,8-tetrahydrocarbostyril], under “time 0 mins prior to challenge”, the inhibition in vivo at 25 mg/kg turned out to be 27% and the inhibition in vivo at 100 mg/kg stood at 72%. For the same compound, under setting [1], the inhibition in vivo at 25 mg/kg was determined as 14% and the inhibition in vivo at 100 mg/kg came out at 42%.
`CCn1c2c(c(O)c([N+](=O)[O-])c1=O)CCC(C)C2` (centres unmarked) [Example 11, 1-Ethyl-4-hydroxy-7-methyl-3-nitro-5,6,7,8-tetrahydrocarbostyril]: where the note is “time 0 mins prior to challenge”, the inhibition in vivo at 25 mg/kg is 8% and the inhibition in vivo at 100 mg/kg turned out to be 31%. Further, under setting [1], the inhibition in vivo at 25 mg/kg was determined as 38% and the inhibition in vivo at 100 mg/kg amounted to 57%.
The like results for `CCCn1c2c(c(O)c([N+](=O)[O-])c1=O)CCCC2` [Example 9, 4-Hydroxy-3-nitro-1-n-propyl-5,6,7,8-tetrahydrocarbostyril] were, in that order, 51%, 18%, 25% and 69%.
On to `CC(C)n1c2c(c(O)c([N+](=O)[O-])c1=O)CCCC2` [Example 10, 4-Hydroxy-1-isopropyl-3-nitro-5,6,7,8-tetrahydrocarbostyril], for which the inhibition in vivo at 25 mg/kg (time 0 mins prior to challenge) turned out to be 5% and the inhibition in vivo at 25 mg/kg under setting [1] turned out to be 0%. The inhibition in vivo at 100 mg/kg (time 0 mins prior to challenge) was 8% and the inhibition in vivo at 100 mg/kg under setting [1] worked out at 16%.
As for `O=c1[nH]c2c(c(O)c1[N+](=O)[O-])CCCCC2` [Example 4, 5,6-cycloheptenyl-4-hydroxy-3-nitro-α-pyridone], for the setting “time 0 mins prior to challenge”, the inhibition in vivo at 25 mg/kg was -10% and the inhibition in vivo at 100 mg/kg was -3%. Also, under setting [3], the inhibition in vivo at 25 mg/kg stood at 1% and the inhibition in vivo at 100 mg/kg stood at 27%.
Consider `O=c1[nH]c2c(c(O)c1[N+](=O)[O-])CCC2` [Example 3, 5,6-Cyclopenteno-4-hydroxy-3-nitro-α-pyridone], for which, where the note is “time 0 mins prior to challenge”, the inhibition in vivo at 25 mg/kg worked out at 10% and the inhibition in vivo at 100 mg/kg was 28%. For the same compound, under setting [1], the inhibition in vivo at 25 mg/kg is -20% and the inhibition in vivo at 100 mg/kg was determined as 6%.

Source of the values: patent US4006237A, “Tetrahydrocarbostyril derivatives for the prophylaxis of asthma, hayfever and rhinitis” (Beecham Group Limited, priority 1973, dated 1977).
